We go through 13 compounds from PubChem BioAssay AID328 (DTP/NCI, 2004).

The test concerns BDF1 mice, P388 leukemia ip, median survival T/C. The test can be described thus: NCI In Vivo Anticancer Drug Screen. Data for tumor model P388 Leukemia (intraperitoneal) in B6D2F1 (BDF1) mice. To be noted: endpoint: median survival time, higher = longer survival. The procedure, abridged: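 Vehicle-dosed animals serve as the reference; survival of compound-dosed, tumour-implanted mice is divided by it.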

Setting [1] is: dose: 25.0 mg/kg/injection, schedule: Q01DX009 (ip), vehicle: saline.

“And” between values parts separate entries of the source, which are not always exact repeats. Identical values can stand only once. Toxic doses and inconclusive results are not listed.

Regarding `Oc1c(O)c(Cl)c(Cl)c(Cl)c1Cl`, the T/C (dose: 12.5 mg/kg/injection, schedule: Q01DX009 (ip), vehicle: saline sonified) was 95 % of control; the T/C (dose: 12.5 mg/kg/injection, schedule: Q04DX003 (ip), vehicle: saline sonified) was 100 % of control; the T/C (dose: 25.0 mg/kg/injection, schedule: Q01DX009 (ip), vehicle: saline sonified) was 108 % of control; the T/C (dose: 25.0 mg/kg/injection, schedule: Q04DX003 (ip), vehicle: saline sonified) was 100 % of control; the T/C (dose: 50.0 mg/kg/injection, schedule: Q01DX009 (ip), vehicle: saline sonified) was 116 % of control; the T/C (dose: 50.0 mg/kg/injection, schedule: Q04DX003 (ip), vehicle: saline sonified) was 100 % of control.
As for `C[C@@H]1C[C@@]2(C)[C@@H](CC[C@@H]3[C@@H]2CC[C@]2(C)OC(=O)CC[C@@H]32)CC1=O`, the T/C is 105 % of control (dose: 100.0 mg/kg/injection, schedule: Q04DX003 (ip), vehicle: alcohol); 95 % of control (dose: 200.0 mg/kg/injection, schedule: Q04DX003 (ip), vehicle: alcohol); 95 % of control and 110 % of control (dose: 264.0 mg/kg/injection, schedule: Q04DX003 (ip), vehicle: saline); 105 % of control (dose: 400.0 mg/kg/injection, schedule: Q04DX003 (ip), vehicle: saline).
Consider `CN(C)c1ccc(C(O)C(N)=O)cc1` (centres undefined), for which the T/C (dose: 6.25 mg/kg/injection, schedule: Q01DX009 (ip), vehicle: saline) is 90 % of control and the T/C under setting [1] is 90 % of control.
As for `COc1ccc2nc3cc(Cl)ccc3c(Nc3ccc(O)c(CN(CCCl)CCCl)c3)c2c1`, the T/C (dose: 0.06 mg/kg/injection, schedule: Q01DX009 (ip), vehicle: saline with Tween-80) is 105 % of control; the T/C (dose: 0.09 mg/kg/injection, schedule: Q01DX009 (ip), vehicle: saline with Tween-80) was 99 % of control; the T/C (dose: 0.13 mg/kg/injection, schedule: Q01DX009 (ip), vehicle: saline with Tween-80) was 89 % of control; the T/C (dose: 0.22 mg/kg/injection, schedule: Q04DX003 (ip), vehicle: saline) was 100 % of control; the T/C (dose: 0.33 mg/kg/injection, schedule: Q04DX003 (ip), vehicle: saline) is 118 % of control; the T/C (dose: 0.5 mg/kg/injection, schedule: Q01DX009 (ip), vehicle: saline) is 177 % of control. For the same compound, the T/C is 163 % of control (dose: 1.0 mg/kg/injection, schedule: Q01DX009 (ip), vehicle: saline); 159 % of control (dose: 1.0 mg/kg/injection, schedule: Q04DX003 (ip), vehicle: saline); 154 % of control (dose: 1.33 mg/kg/injection, schedule: Q04DX003 (ip), vehicle: saline); 104 % of control (dose: 2.0 mg/kg/injection, schedule: Q01DX009 (ip), vehicle: saline); 158 % of control and 181 % of control (dose: 2.0 mg/kg/injection, schedule: Q04DX003 (ip), vehicle: saline); 158 % of control and 179 % of control (dose: 3.0 mg/kg/injection, schedule: Q04DX003 (ip), vehicle: saline). Also, the T/C was 195 % of control (dose: 4.5 mg/kg/injection, schedule: Q04DX003 (ip), vehicle: saline); 179 % of control (dose: 6.7 mg/kg/injection, schedule: Q04DX003 (ip), vehicle: saline); 183 % of control (dose: 10.0 mg/kg/injection, schedule: Q04DX003 (ip), vehicle: saline).
Regarding `NC(=O)CC(N)C(=O)O` (centres undefined), the T/C was 100 % of control (dose: 200.0 mg/kg/injection, schedule: Q01DX009 (ip), vehicle: saline); 110 % of control (dose: 200.0 mg/kg/injection, schedule: Q01DX010 (ip), vehicle: other); 100 % of control (dose: 400.0 mg/kg/injection, schedule: Q01DX009 (ip), vehicle: saline); 120 % of control (dose: 400.0 mg/kg/injection, schedule: Q01DX010 (ip), vehicle: other); 86 % of control (dose: 400.0 mg/kg/injection, schedule: Q01DX010 (ip), vehicle: saline with Tween-80); 110 % of control (dose: 800.0 mg/kg/injection, schedule: Q01DX009 (ip), vehicle: saline). Besides, the T/C reads like this: (dose: 800.0 mg/kg/injection, schedule: Q01DX010 (ip), vehicle: other) 100 % of control; (dose: 1600.0 mg/kg/injection, schedule: Q01DX009 (ip), vehicle: saline) 115 % of control; (dose: 1600.0 mg/kg/injection, schedule: Q01DX010 (ip), vehicle: other) 115 % of control; (dose: 1600.0 mg/kg/injection, schedule: Q01DX010 (ip), vehicle: saline with Tween-80) 150 % of control.
On to `CC[C@H]1CN2CCc3cc(OC)c(OC)cc3[C@@H]2C[C@@H]1C[C@H]1NCCc2c1[nH]c1ccc(OC)cc21`, for which the T/C was 183 % of control (dose: 16.0 mg/kg/injection, schedule: Q04DX003 (ip), vehicle: saline); 166 % of control (dose: 18.0 mg/kg/injection, schedule: Q04DX003 (ip), vehicle: acid diluted with saline); 150 % of control (dose: 30.0 mg/kg/injection, schedule: Q04DX003 (ip), vehicle: acid diluted with saline); 186 % of control (dose: 32.0 mg/kg/injection, schedule: Q04DX003 (ip), vehicle: saline); 102 % of control (dose: 64.0 mg/kg/injection, schedule: Q04DX003 (ip), vehicle: saline).
On to `O=[N+]([O-])c1ccc(/C=C/c2ncc[nH]2)o1`, for which the T/C by setting is: (dose: 50.0 mg/kg/injection, schedule: Q04DX003 (ip), vehicle: Klucel (hydroxypropylcellulose) (HPC)) 100 % of control; (dose: 100.0 mg/kg/injection, schedule: Q04DX003 (ip), vehicle: Klucel (hydroxypropylcellulose) (HPC)) 100 % of control; (dose: 200.0 mg/kg/injection, schedule: Q04DX003 (ip), vehicle: Klucel (hydroxypropylcellulose) (HPC)) 100 % of control.
`N/N=C(/C=C/C(=O)O)c1ccccc1`: the T/C by setting is: (dose: 100.0 mg/kg/injection, schedule: Q01DX001 (ip), vehicle: saline sonified) 100 % of control; (dose: 200.0 mg/kg/injection, schedule: Q01DX001 (ip), vehicle: saline sonified) 109 % of control; (dose: 400.0 mg/kg/injection, schedule: Q01DX001 (ip), vehicle: saline sonified) 100 % of control.
Take `C=C1C(=O)OC2/C=C(\C)CC/C=C(/C)CC(O)C12` (centres undefined): the T/C runs as follows: (dose: 5.0 mg/kg/injection, schedule: Q04DX003 (ip), vehicle: saline with Tween-80) 98 % of control; (dose: 10.0 mg/kg/injection, schedule: Q04DX003 (ip), vehicle: saline with Tween-80) 114 % of control; (dose: 20.0 mg/kg/injection, schedule: Q04DX003 (ip), vehicle: saline with Tween-80) 98 % of control.
With `CCCCCC(CN(C)C)C(=O)/C=C\c1ccc(Cl)cc1Cl` (centres undefined), the T/C by setting is: (dose: 8.0 mg/kg/injection, schedule: Q01DX009 (ip), vehicle: saline) 122 % of control; (dose: 12.0 mg/kg/injection, schedule: Q01DX009 (ip), vehicle: saline) 122 % of control; (dose: 18.0 mg/kg/injection, schedule: Q01DX009 (ip), vehicle: saline) 122 % of control.
Regarding `CCCC[N+](CCCC)=c1cc(-c2ccc(Cl)cc2)ss1`, the T/C reads like this: (dose: 3.12 mg/kg/injection, schedule: Q01DX009 (ip), vehicle: water) 100 % of control and 114 % of control; (dose: 6.25 mg/kg/injection, schedule: Q01DX009 (ip), vehicle: water) 91 % of control and 120 % of control; (dose: 12.5 mg/kg/injection, schedule: Q01DX009 (ip), vehicle: water) 98 % of control and 104 % of control; (dose: 25.0 mg/kg/injection, schedule: Q01DX009 (ip), vehicle: water) 100 % of control and 106 % of control; (dose: 50.0 mg/kg/injection, schedule: Q04DX003 (ip), vehicle: water) 102 % of control; (dose: 100.0 mg/kg/injection, schedule: Q04DX003 (ip), vehicle: water) 93 % of control.
For the compound `CC(NC(C)(C)C)C(=O)c1cccc(Cl)c1` (centres undefined), the T/C is, setting by setting: (dose: 12.5 mg/kg/injection, schedule: Q01DX009 (ip), vehicle: saline) 108 % of control; under setting [1], 112 % of control; (dose: 50.0 mg/kg/injection, schedule: Q01DX009 (ip), vehicle: saline) 105 % of control.
As for `C[C@]12CCC(=O)C=C1CC[C@@H]1[C@@H]2[C@@H](O)C[C@@]2(C)[C@H]1CC[C@]2(O)C(=O)CO`, the T/C reads like this: (dose: 6.25 mg/kg/injection, schedule: Q01DX010 (sc), vehicle: steriod suspending solution) 100 % of control; (dose: 12.5 mg/kg/injection, schedule: Q01DX010 (sc), vehicle: steriod suspending solution) 100 % of control; (dose: 25.0 mg/kg/injection, schedule: Q01DX010 (sc), vehicle: steriod suspending solution) 110 % of control; (dose: 50.0 mg/kg/injection, schedule: Q01DX010 (sc), vehicle: steriod suspending solution) 120 % of control; (dose: 100.0 mg/kg/injection, schedule: Q01DX010 (sc), vehicle: steriod suspending solution) 115 % of control and 120 % of control; (dose: 200.0 mg/kg/injection, schedule: Q01DX010 (sc), vehicle: steriod suspending solution) 110 % of control.
